Results as given in paper PMC9403976, “Elucidating the path to Plasmodium prolyl-tRNA synthetase inhibitors that overcome halofuginone resistance” (Nature Communications, 2022).
Values joined by “and” are separate entries in the source; they are usually repeats but may differ in a detail not shown here. Equal values may be shown once. Read-outs that look alike come from different tables or passages of the source.

Tests used:
P. falciparum Dd2-2D4 = test: P. falciparum asexual blood stage (ABS) growth assay, SYBR Green, 72 h, wild-type parasites; type: cell-based, Plasmodium falciparum; conditions: Log[inhibitor] (M) -7.408
Experimental: Parasites were maintained under standard culture conditions as described previously[56],[57]. […] The P. falciparum Dd2 cell lines used in this study (Dd2-2D4, halofuginone-induced, and HFGR-I) have previously undergone whole genome sequencing in our labs.
This assay was performed as previously described[8]. In short, P. falciparum erythrocytic-stage parasites at 1% parasitemia and 1% hematocrit in RPMI + 0.5% Albumax were seeded at 40 μL/well in 384-well plates with test compounds in triplicate, dose-response format with 10 μM dihydroartemisinin as a kill-control and blank (no compound) wells as a growth-control. […] After 72 h, growth was quantified by measuring fluorescence (Molecular Devices SpectraMax iD5) following SYBR Green 1 staining. Data were analyzed in Excel and plotted in PRISM (V. 8.4.3–9.1.0, GraphPad).

PfcProRS = molecular target: T1, PfcProRS (Plasmodium falciparum, UniProt Q8I5R7); type: binding; conditions: for dose-response signal (normalized), SI Fig 8: single replicates
T1 construct: made in house; host or cells: E. coli SoluBL-21

HsProRS = HsProRS (Homo sapiens, UniProt P07814); test: TR-FRET ligand displacement assay with tracer MAT379 (CoraFluor-1-Halo and anti-His6 antibody formats); type: binding; set-up: made in house; host or cells: E. coli SoluBL-21; conditions: for TR-FRET dose-response, normalized signal (SI Fig 11): individual replicates
HsProRS, sequence (P07814 996-1512): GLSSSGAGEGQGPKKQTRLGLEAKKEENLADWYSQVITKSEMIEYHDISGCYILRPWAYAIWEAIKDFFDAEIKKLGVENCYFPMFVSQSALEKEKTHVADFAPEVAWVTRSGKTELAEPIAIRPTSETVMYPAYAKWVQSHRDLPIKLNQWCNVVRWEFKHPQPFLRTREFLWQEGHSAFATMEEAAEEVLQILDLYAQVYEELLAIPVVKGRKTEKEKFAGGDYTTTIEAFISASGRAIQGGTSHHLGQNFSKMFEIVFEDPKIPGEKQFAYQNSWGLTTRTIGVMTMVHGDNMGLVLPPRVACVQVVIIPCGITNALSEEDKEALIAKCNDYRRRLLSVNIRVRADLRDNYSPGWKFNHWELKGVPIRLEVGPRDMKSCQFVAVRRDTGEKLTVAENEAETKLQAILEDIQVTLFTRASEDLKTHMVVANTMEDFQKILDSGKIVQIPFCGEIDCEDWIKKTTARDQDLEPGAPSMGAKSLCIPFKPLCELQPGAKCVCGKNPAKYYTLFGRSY

T1 sequence (Q8I5R7 249-746): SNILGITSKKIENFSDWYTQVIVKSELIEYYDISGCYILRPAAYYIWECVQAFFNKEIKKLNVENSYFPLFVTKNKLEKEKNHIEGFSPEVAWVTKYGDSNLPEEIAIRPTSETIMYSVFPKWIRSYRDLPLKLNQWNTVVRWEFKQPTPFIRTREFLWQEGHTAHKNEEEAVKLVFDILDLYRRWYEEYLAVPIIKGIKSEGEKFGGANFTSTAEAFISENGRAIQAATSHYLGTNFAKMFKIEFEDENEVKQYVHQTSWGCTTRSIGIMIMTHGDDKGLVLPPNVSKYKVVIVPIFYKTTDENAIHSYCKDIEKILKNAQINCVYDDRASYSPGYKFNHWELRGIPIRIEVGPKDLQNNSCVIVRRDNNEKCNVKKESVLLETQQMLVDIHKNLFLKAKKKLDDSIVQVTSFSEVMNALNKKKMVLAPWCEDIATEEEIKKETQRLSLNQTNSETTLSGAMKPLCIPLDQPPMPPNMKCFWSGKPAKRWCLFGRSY

SMILES: O=C(NC1Cc2ccccc2C1)c1nccnc1NC(=O)N1CCNCC1 [compound 14]
- dose-response value per replicate (SI Fig 2g) (P. falciparum Dd2-2D4): 106
- dose-response signal (normalized), SI Fig 8 (PfcProRS; Log[inhibitor] (M) -5.000): 3.52E-01 and 3.02E-01 and 4.80E-01
- dose-response signal (normalized), SI Fig 8 (PfcProRS; Log[inhibitor] (M) -5.301): 6.97E-01 and 5.97E-01 and 7.91E-01
- dose-response signal (normalized), SI Fig 8 (PfcProRS; Log[inhibitor] (M) -5.601): 7.61E-01 and 7.19E-01 and 8.51E-01
- dose-response signal (normalized), SI Fig 8 (PfcProRS; Log[inhibitor] (M) -5.904): 9.39E-01 and 1.01E+00 and 9.69E-01
- dose-response signal (normalized), SI Fig 8 (PfcProRS; Log[inhibitor] (M) -6.208): 9.51E-01 and 9.80E-01 and 1.13E+00
- dose-response signal (normalized), SI Fig 8 (PfcProRS; Log[inhibitor] (M) -6.509): 1.06E+00 and 1.12E+00 and 9.92E-01
- dose-response signal (normalized), SI Fig 8 (PfcProRS; Log[inhibitor] (M) -6.796): 9.94E-01 and 1.03E+00 and 9.99E-01
- dose-response signal (normalized), SI Fig 8 (PfcProRS; Log[inhibitor] (M) -7.108): 1.00E+00 and 1.01E+00 and 1.05E+00
- dose-response signal (normalized), SI Fig 8 (PfcProRS; Log[inhibitor] (M) -7.409): 1.05E+00 and 9.56E-01 and 1.00E+00
- dose-response signal (normalized), SI Fig 8 (PfcProRS; Log[inhibitor] (M) -7.710): 1.05E+00 and 1.12E+00 and 1.08E+00
- dose-response signal (normalized), SI Fig 8 (PfcProRS; Log[inhibitor] (M) -8.000): 9.77E-01 and 1.04E+00 (2×)
- dose-response signal (normalized), SI Fig 8 (PfcProRS; Log[inhibitor] (M) -8.301): 1.09E+00 and 1.08E+00 and 1.13E+00
- dose-response signal (normalized), SI Fig 8 (PfcProRS; Log[inhibitor] (M) -8.602): 9.19E-01 and 1.01E+00 and 1.04E+00
- dose-response signal (normalized), SI Fig 8 (PfcProRS; Log[inhibitor] (M) -9.000): 9.80E-01 and 1.02E+00 and 1.08E+00
- dose-response signal (normalized), SI Fig 8 (PfcProRS; Log[inhibitor] (M) -9.301): 1.02E+00 and 1.01E+00 and 8.73E-01
- PfcProRS -- best Kd (PfcProRS; SI Fig 16a, values on -log scale): 5.788
- IC50 (HsProRS): > 10000 nM
- Kd (HsProRS; HsProRS - best Kd, SI Fig 16a, values on -log scale): 347 nM
- normalized TR-FRET ligand displacement signal, dose-response replicates (SI Fig 6) (HsProRS; Log[inhibitor] (M) -5.000): 7.56E-01 and 7.38E-01 and 6.65E-01
- TR-FRET dose-response, normalized signal (SI Fig 11) (HsProRS; Log[inhibitor] (M) -5.000): 5.37E-01 and 5.66E-01 and 5.12E-01
- normalized TR-FRET ligand displacement signal, dose-response replicates (SI Fig 6) (HsProRS; Log[inhibitor] (M) -5.301): 8.27E-01 and 7.77E-01 and 8.29E-01
- TR-FRET dose-response, normalized signal (SI Fig 11) (HsProRS; Log[inhibitor] (M) -5.301): 7.06E-01 and 7.34E-01 and 7.02E-01
- normalized TR-FRET ligand displacement signal, dose-response replicates (SI Fig 6) (HsProRS; Log[inhibitor] (M) -5.601): 9.28E-01 and 8.85E-01 and 8.45E-01
- TR-FRET dose-response, normalized signal (SI Fig 11) (HsProRS; Log[inhibitor] (M) -5.601): 8.30E-01 and 8.51E-01 and 8.70E-01
- normalized TR-FRET ligand displacement signal, dose-response replicates (SI Fig 6) (HsProRS; Log[inhibitor] (M) -5.904): 9.66E-01 and 1.02E+00 and 8.66E-01
- TR-FRET dose-response, normalized signal (SI Fig 11) (HsProRS; Log[inhibitor] (M) -5.904): 9.48E-01 and 8.82E-01 and 9.17E-01
- normalized TR-FRET ligand displacement signal, dose-response replicates (SI Fig 6) (HsProRS; Log[inhibitor] (M) -6.208): 9.85E-01 and 9.86E-01 and 1.00E+00
- TR-FRET dose-response, normalized signal (SI Fig 11) (HsProRS; Log[inhibitor] (M) -6.208): 9.32E-01 and 8.78E-01 and 9.58E-01
- normalized TR-FRET ligand displacement signal, dose-response replicates (SI Fig 6) (HsProRS; Log[inhibitor] (M) -6.509): 1.15E+00 and 1.03E+00 and 9.65E-01
- TR-FRET dose-response, normalized signal (SI Fig 11) (HsProRS; Log[inhibitor] (M) -6.509): 9.64E-01 and 9.63E-01 and 9.66E-01
- normalized TR-FRET ligand displacement signal, dose-response replicates (SI Fig 6) (HsProRS; Log[inhibitor] (M) -6.796): 1.11E+00 and 1.13E+00 and 1.12E+00
- TR-FRET dose-response, normalized signal (SI Fig 11) (HsProRS; Log[inhibitor] (M) -6.796): 1.02E+00 and 9.73E-01 and 9.90E-01
- normalized TR-FRET ligand displacement signal, dose-response replicates (SI Fig 6) (HsProRS; Log[inhibitor] (M) -7.108): 1.08E+00 and 1.05E+00 and 9.83E-01
- TR-FRET dose-response, normalized signal (SI Fig 11) (HsProRS; Log[inhibitor] (M) -7.108): 9.95E-01 and 1.03E+00 and 9.34E-01
- normalized TR-FRET ligand displacement signal, dose-response replicates (SI Fig 6) (HsProRS; Log[inhibitor] (M) -7.409): 9.81E-01 and 8.66E-01 and 9.44E-01
- TR-FRET dose-response, normalized signal (SI Fig 11) (HsProRS; Log[inhibitor] (M) -7.409): 9.68E-01 and 9.66E-01 and 9.87E-01
- normalized TR-FRET ligand displacement signal, dose-response replicates (SI Fig 6) (HsProRS; Log[inhibitor] (M) -7.710): 1.08E+00 and 1.01E+00 (2×)
- TR-FRET dose-response, normalized signal (SI Fig 11) (HsProRS; Log[inhibitor] (M) -7.710): 1.03E+00 (2×) and 9.36E-01
- normalized TR-FRET ligand displacement signal, dose-response replicates (SI Fig 6) (HsProRS; Log[inhibitor] (M) -8.000): 9.08E-01 and 9.09E-01 and 9.75E-01
- TR-FRET dose-response, normalized signal (SI Fig 11) (HsProRS; Log[inhibitor] (M) -8.000): 1.02E+00 and 1.03E+00 and 9.52E-01
- normalized TR-FRET ligand displacement signal, dose-response replicates (SI Fig 6) (HsProRS; Log[inhibitor] (M) -8.301): 9.22E-01 and 9.86E-01 and 9.29E-01
- TR-FRET dose-response, normalized signal (SI Fig 11) (HsProRS; Log[inhibitor] (M) -8.301): 1.02E+00 and 9.93E-01 and 9.56E-01
- normalized TR-FRET ligand displacement signal, dose-response replicates (SI Fig 6) (HsProRS; Log[inhibitor] (M) -8.602): 9.82E-01 and 1.05E+00 and 8.99E-01
- TR-FRET dose-response, normalized signal (SI Fig 11) (HsProRS; Log[inhibitor] (M) -8.602): 9.98E-01 and 9.57E-01 and 9.65E-01
- normalized TR-FRET ligand displacement signal, dose-response replicates (SI Fig 6) (HsProRS; Log[inhibitor] (M) -9.000): 1.07E+00 and 1.04E+00 and 1.00E+00
- TR-FRET dose-response, normalized signal (SI Fig 11) (HsProRS; Log[inhibitor] (M) -9.000): 1.00E+00 and 9.49E-01 and 9.70E-01
- normalized TR-FRET ligand displacement signal, dose-response replicates (SI Fig 6) (HsProRS; Log[inhibitor] (M) -9.301): 9.76E-01 and 9.94E-01 and 1.01E+00
- TR-FRET dose-response, normalized signal (SI Fig 11) (HsProRS; Log[inhibitor] (M) -9.301): 9.76E-01 and 1.00E+00 and 9.87E-01
- HsProRS % signal at 10 μM (HsProRS; no added proline/ATP (-), 10 μM): 53.8%
